Source: US20080167284A1, “Hair And/Or Scalp Care Compositions Incorporating Visnadin” (priority 2005, published 2008)
pEC50: −log10 of the molar value.

Columns and labels:
[1] = biological target: T1, Cannabinoid Receptor 2 (CB2R), human recombinant CB2 (Homo sapiens, UniProt P34972); experiment: CB2R radioligand experiment on membranes from HEK293 cells over-expressing human recombinant CB2; assay type: binding; details: human recombinant CB2, radioligand [3H]CP-55,495, n=3
T1 construct: purchased Perkin-Elmer; host or cells: HEK293
Procedure: (§1) Visnadin was evaluated for its ability to activate Cannabinoid Receptor 1 (CB1R) and Cannabinoid Receptor 2 (CB2R).
CB2R experiments were performed using membranes from HEK293 cells over-expressing human recombinant CB2, as described by the manufacturer (Perkin-Elmer), and using [3H]CP-55,495 as the radioligand.
(§2) Data of active compounds are expressed in Ki (mM) and are means±SEM of n=3 determinations.
(§3) The values that are stated for each of the compounds is an EC50 value. This is defined as the molar concentration of an agonist, which produces 50% of the maximum possible response for that agonist. The values documented are in micromolar units.

[2] = biological target: T2, Cannabinoid Receptor 1 (CB1R), human recombinant CB1 (Homo sapiens, UniProt P21554); experiment: CB1R radioligand experiment on membranes from HEK293 cells over-expressing human recombinant CB1; assay type: binding; details: human recombinant CB1, radioligand [3H]CP-55,490, n=3
T2 construct: purchased Perkin-Elmer; host or cells: HEK293
Procedure: as §1
CB1R experiments were performed using membranes from HEK293 cells over-expressing human recombinant CB1, as described by the manufacturer (Perkin-Elmer) and using [3H]CP-55,490 as the radioligand.
as §2, §3

T1 sequence (P34972 whole entry): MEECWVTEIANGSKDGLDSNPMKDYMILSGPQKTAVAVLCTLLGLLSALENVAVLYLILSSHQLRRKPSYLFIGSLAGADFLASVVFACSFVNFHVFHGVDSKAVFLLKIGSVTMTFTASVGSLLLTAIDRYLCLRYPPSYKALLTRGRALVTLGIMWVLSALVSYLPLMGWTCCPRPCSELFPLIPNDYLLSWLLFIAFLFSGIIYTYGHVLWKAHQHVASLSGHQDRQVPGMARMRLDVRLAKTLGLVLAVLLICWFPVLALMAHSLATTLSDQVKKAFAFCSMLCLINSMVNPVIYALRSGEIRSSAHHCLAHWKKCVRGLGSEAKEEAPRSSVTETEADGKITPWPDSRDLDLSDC
T2 sequence (P21554 whole entry): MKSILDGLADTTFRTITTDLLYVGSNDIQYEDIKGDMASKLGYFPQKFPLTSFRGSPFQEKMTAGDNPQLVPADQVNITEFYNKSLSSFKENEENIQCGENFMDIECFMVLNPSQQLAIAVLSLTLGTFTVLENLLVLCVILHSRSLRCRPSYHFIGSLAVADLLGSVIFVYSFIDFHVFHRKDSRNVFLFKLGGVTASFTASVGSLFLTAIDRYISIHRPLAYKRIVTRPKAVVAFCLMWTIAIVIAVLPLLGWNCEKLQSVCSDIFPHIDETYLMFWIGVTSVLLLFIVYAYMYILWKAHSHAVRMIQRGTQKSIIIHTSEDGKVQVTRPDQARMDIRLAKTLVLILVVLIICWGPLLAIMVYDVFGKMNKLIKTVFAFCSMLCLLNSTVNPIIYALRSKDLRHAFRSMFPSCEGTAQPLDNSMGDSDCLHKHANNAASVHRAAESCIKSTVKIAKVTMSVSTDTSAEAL

- pEC50 [1]: 4.85
- pEC50 [2]: < 4.60
SMILES: CCC(C)C(=O)O[C@@H]1[C@H](OC(C)=O)c2c(ccc3ccc(=O)oc23)OC1(C)C (some centres unmarked) [visnadin]
